{
  "source": "patent US20080214662A1",
  "about": "“METHODS FOR THE TREATMENT OF DEMENTIA BASED ON APO E GENOTYPE” (priority 2002, published 2008)",
  "test_system": "outpatients with probable AD",
  "assay": "Pharmacogenetic analysis of ADAS-Cog response to rivastigmine by ApoE ε4 carrier status in Phase III trials ENA 713 B351 and ENA 713 B352",
  "format": "in vivo, human",
  "parameters": "key to mean of change from baseline in ADAS-Cog score at end of study: change from baseline in ADAS-Cog score points",
  "details": "for response to treatment (non-deterioration, Table 7), share of individuals: rivastigmine greater than or equal to 6 mg; for 4-point improvement in the ADAS-Cog score (number of individuals) / Deterioration in the ADAS-Cog score (number of individuals) / No 4-point improvement in the ADAS-Cog score (number of individuals) / Non-deterioration in the ADAS-Cog score (number of individuals): 26 weeks",
  "protocol": "A pharmacogenetic study of the effect of a patients ApoE ε4 genotype on the response to the ChEI, rivastigmine was conducted. Rivastigmine tartrate is an inhibitor of both AChE and BuChE and is commercially available under the name EXELON™ from Novartis Pharmaceuticals Corporation, East Hanover, N.J. Individuals In the trial were divided into treatment groups depending on the dose they received, namely <6 mg/day of rivastigmine, 6-12 mg/day of rivastigmine and placebo. Each treatment group was analyzed separately. Individuals in each treatment group were then classified as ApoE ε4 carriers or non-carriers based on the genotype data. A significant association (P=0.0071) between the ApoE ε4 carriers and the greater than 4 point improvement was found in the 6-12 mg group. In contrast, the association of the ApoE ε4 allele with non-deterioration in the study was not significant (P=0.1172) in the same group.\nThe Phase III clinical trials ENA 713 B352 and ENA 713 B351 are multicenter, double-blind, placebo-controlled, parallel-group study to examine the effect of rivastigmine in outpatients with probable AD. Both trials are conducted over a period of 26 weeks. ENA 713 B351 has 4 treatment arms with comprising of rivastigmine 3 mg/day, rivastigmine 6 mg/day, rivastigmine 9 mg/day or placebo. The initial dose-titration phase (Weeks 1-12) was followed by a fixed-dose phase (Week 13-26), for a total randomized double-blind treatment period of 26 weeks. ENA 713 B352 has 3 treatment arms with comprising of rivastigmine 1-4 mg/day, rivastigmine 6-12 mg/day, and placebo. The initial dose-titration phase (Weeks 1-7) was followed by a fixed-dose phase (Week 8-26), for a total randomized, double-blind treatment period of 26 weeks. The blood samples were handled by the Roskamp Institute, University of South Florida.\nIndividuals in the trial were classified as being responders if the final change from their baseline ADAS-COG scores is less than or equal to 4-points. A Fisher's Exact test was used to find an association between ApoE genotype and response.\nIndividuals in the trial were classified as being responders if the final change from their baseline ADAS-Cog scores is less than or equal to 0 points. A Fisher's Exact test was used to find an association between ApoE genotype and response.\nTreatment differences in the ApoE ε4 and non-ApoE ε4 carriers were also analyzed. Treatment differences being measured as the 4-point decrease and the non-deterioration classes. An exact Cochran-Armitage test for trend is used to determine if the numbers of responders increase with dose of rivastigmine among each genotype group.\nThe trial population was divided into three groups based on the treatment they received. The three groups are placebo, rivastigmine <6 mg/day and rivastigmine ≧6 mg/day. All analyses were conducted within each group separately. The genotype data for the ApoE were re-coded for the presence or absence of the […]. The re-coded genotype data were used as the categorical variable.\nA non-parametric analysis of variance (ANOVA) model was used for the analysis. Change from baseline in the ADAS-Cog score is used as the dependent variable.",
  "key": {"[1]": {"details": "rivastigmine <6 mg/day, No ε4 allele"}, "[2]": {"details": "rivastigmine <6 mg/day, ε4 allele carriers"}, "[3]": {"details": "rivastigmine ≧6 mg/day, No ε4 allele"}, "[4]": {"details": "rivastigmine ≧6 mg/day, No ε4 allele, listed as Rivastigmine"}, "[5]": {"details": "rivastigmine ≧6 mg/day, ε4 allele carriers"}},
  "note": "“And” between values parts separate entries of the source, which are not always exact repeats. Identical values can stand only once.",
  "data": [
    {"smiles": "CCN(C)C(=O)Oc1cccc([C@H](C)N(C)C)c1", "note": "[rivastigmine]", "values": [
      {"measurement": "response to treatment (non-deterioration, Table 7), share of individuals", "setting": "ApoE ε4 carriers", "result": 65, "unit": "%"},
      {"measurement": "mean of change from baseline in ADAS-Cog score at end of study", "setting": "Rivastigmine <6 mg/day, No ε4 allele", "result": 1.444},
      {"measurement": "mean of change from baseline in ADAS-Cog score at end of study", "setting": "Rivastigmine <6 mg/day, ε4 allele", "result": 1.293},
      {"measurement": "mean of change from baseline in ADAS-Cog score at end of study", "setting": "Rivastigmine ≧6 mg/day, No ε4 allele, listed as Rivastigmine", "result": 0.39},
      {"measurement": "mean of change from baseline in ADAS-Cog score at end of study", "setting": "Rivastigmine ≧6 mg/day, ε4 allele", "result": "−1.74"},
      {"measurement": "response to treatment (non-deterioration, Table 7), share of individuals", "setting": "non-ApoE ε4 carriers", "result": 48.7, "unit": "%"},
      {"measurement": "4-point improvement in the ADAS-Cog score (number of individuals)", "setting": "[1]", "result": 4},
      {"measurement": "Deterioration in the ADAS-Cog score (number of individuals)", "setting": "[1]", "result": 24},
      {"measurement": "No 4-point improvement in the ADAS-Cog score (number of individuals)", "setting": "[1]", "result": 32},
      {"measurement": "Non-deterioration in the ADAS-Cog score (number of individuals)", "setting": "[1]", "result": 12},
      {"measurement": "No 4-point improvement in the ADAS-Cog score (number of individuals)", "setting": "rivastigmine <6 mg/day, No ε4 allele, listed as Rivastigmine", "result": 37},
      {"measurement": "4-point improvement in the ADAS-Cog score (number of individuals)", "setting": "[2]", "result": 12},
      {"measurement": "Deterioration in the ADAS-Cog score (number of individuals)", "setting": "[2]", "result": 63},
      {"measurement": "No 4-point improvement in the ADAS-Cog score (number of individuals)", "setting": "[2]", "result": 83},
      {"measurement": "Non-deterioration in the ADAS-Cog score (number of individuals)", "setting": "[2]", "result": "32 and 12"},
      {"measurement": "4-point improvement in the ADAS-Cog score (number of individuals)", "setting": "[3]", "result": 4},
      {"measurement": "Deterioration in the ADAS-Cog score (number of individuals)", "setting": "[3]", "result": 21},
      {"measurement": "No 4-point improvement in the ADAS-Cog score (number of individuals)", "setting": "[3]", "result": 37},
      {"measurement": "Non-deterioration in the ADAS-Cog score (number of individuals)", "setting": "[3]", "result": 20},
      {"measurement": "4-point improvement in the ADAS-Cog score (number of individuals)", "setting": "[4]", "result": 26},
      {"measurement": "No 4-point improvement in the ADAS-Cog score (number of individuals)", "setting": "[4]", "result": 54},
      {"measurement": "4-point improvement in the ADAS-Cog score (number of individuals)", "setting": "[5]", "result": 26},
      {"measurement": "Deterioration in the ADAS-Cog score (number of individuals)", "setting": "[5]", "result": 28},
      {"measurement": "No 4-point improvement in the ADAS-Cog score (number of individuals)", "setting": "[5]", "result": 54},
      {"measurement": "Non-deterioration in the ADAS-Cog score (number of individuals)", "setting": "[5]", "result": 52}
    ]}
  ]
}
